Test results as given in patent US6441043B1, “Glyoxylic acid amides” (priority 1997, dated 2002).

Experiment: logP determination by HPLC (EEC directive 79/831 Annex V. A8)
Assay type: physicochemical
Conditions: HPLC gradient method, acetonitrile/0.1% aqueous phosphoric acid
[1] = E/Z mixture, first value (matches the E isomer)
[2] = E/Z mixture, second printed value (matches the Z isomer)
[3] = single isomer (E or Z as in isomer column)

| Structure (SMILES) | logP [1] | logP [2] | logP [3] | other results |
| --- | --- | --- | --- | --- |
| CCON=C(C(=O)NCCc1ccc(OCC)c(OC)c1)c1ccc(C)cc1 (mixture of isomers) [Example 22] | 3.19 | 3.48 |  |  |
| CCOc1ccc(CCNC(=O)C(=NOC)c2ccc(Br)cc2)cc1OC [Example 10] |  |  | 3.18 |  |
| CCOc1ccc(CCNC(=O)C(=NOC)c2ccc(Cl)cc2)cc1OC [Example 11] |  |  | 3.08 |  |
| CCOc1ccc(CCNC(=O)C(=NOC)c2ccc(Cl)cc2)cc1OC (racemic) [Example 1, N-[2-(4-ethoxy-3-methoxyphenyl)-1-ethyl]-2-methoxyimino-2-(4-chlorophenyl)-acetamide] |  |  |  | chromatographic logP [1]: 3.08; chromatographic logP [2]: 3.26 |
| CCOc1ccc(CCNC(=O)C(=NOC)c2ccc(Br)cc2)cc1OC [Example 9] |  |  | 3.44 |  |
| CCON=C(C(=O)NCCc1ccc(OCC)c(OC)c1)c1ccc(Br)cc1 (mixture of isomers) [Example 19] | 3.51 | 3.80 |  |  |
| CCON=C(C(=O)NCCc1ccc(OCC)c(OC)c1)c1ccc(C)cc1 [Example 27] |  |  | 3.48 |  |
| CCOc1ccc(CCNC(=O)C(=NOC)c2ccc(C)cc2)cc1OC (mixture of isomers) [Example 5] | 2.87 | 3.05 |  |  |
| CCON=C(C(=O)NCCc1ccc(OCC)c(OC)c1)c1ccc(CC)cc1 (mixture of isomers) [Example 23] | 3.55 | 3.85 |  |  |
| CCOc1ccc(CCNC(=O)C(=NOC)c2ccc(CC)cc2)cc1OC [Example 16] |  |  | 3.04 |  |
| CCOc1ccc(CCNC(=O)C(=NOC)c2ccc(Br)cc2)cc1OC (mixture of isomers) [Example 3] | 3.18 | 3.44 |  |  |
| CCOc1ccc(CCNC(=O)C(=NOC)c2ccc(Cl)cc2)cc1OC [Example 12] |  |  | 3.26 |  |
| CCON=C(C(=O)NCCc1ccc(OCC)c(OC)c1)c1ccc(Br)cc1 [Example 24] |  |  | 3.80 |  |
| CCOc1ccc(CCNC(=O)C(=NOC)c2ccc(CC)cc2)cc1OC [Example 17] |  |  | 3.21 |  |
| CCON=C(C(=O)NCCc1ccc(OCC)c(OC)c1)c1ccc(Cl)cc1 (mixture of isomers) [Example 21] | 3.41 | 3.69 |  |  |
| CCOc1ccc(CCNC(=O)C(=NOC)c2ccc(C)cc2)cc1OC [Example 15] |  |  | 2.87 |  |
| CCOc1ccc(CCNC(=O)C(=NOC)c2ccc(CC)cc2)cc1OC (mixture of isomers) [Example 6] | 3.21 | 3.40 |  |  |
